“Also recorded” adds a separate entry of the source.
Columns and labels:
[1] = tested on: small intestine bioptic fragments of patients with untreated celiac disease; assay: Organ culture of small intestine biopsies of untreated celiac patients (TUNEL, CD25); type: cell-based, human; conditions: 40 ug/ml, 24 hours organ culture
Procedure: The study was performed in a blind fashion. For this study a organ culture model of celiac, which is a widely used and validated to explore gluten toxicity and mucosal damage in celiac disease was utilized. For the purpose of this project small intestine bioptic fragments of patients with untreated celiac disease were used. Biopsies of untreated celiac patients are ideal to monitor aspects of mucosal damage including induction of epithelial apoptosis and increase of mucosal inflammation.
Twelve adult patients, who were diagnosed as potential untreated celiac patients, were enrolled. Their disease was confirmed by clinical signs, the presence of high titres of anti-tissue transglutaminase and histological analysis of small intestine biopsies.
Organ cultures were performed using standard methods described in Maiuri, L. et al, Gastroenterology 110, 1368-1378. (1996). Briefly a small biopsy fragment (around 1 mm×1 mm) was put on stainless steel mesh and cultured in medium supplemented with the different compounds for a period of 24 hours. The standard positive and negative controls used in studies involving celiac patients and in vitro challenge of biopsies were utilized. The positive control was 1 mg/ml of gliadin peptic-tryptic digest. The negative control was the medium alone. All the compounds to be tested were used at the final concentration of 40 ug/ml. […]
Antigen detection on frozen tissue sections was performed by immunohistochemistry as described in Maiuri, L. et al. Blockage of T-cell costimulation inhibits T-cell action in Celiac disease. […] At least 5 slides for each sample were blindly evaluated. […]
The total number of TUNEL+ enterocytes was referred as percentage of enterocytes. The total number of CD25+ cells in the lamina propria was determined within a standard reference area of 1 mm^2. The counts were performed at a microscope with a calibrated ocular graticule aligned parallel to the muscolaris mucosae and independently analysed by two observers; the results were compared afterwards.

[2] = Feeding pig model (absorption as component of diet); type: in vivo
Description: Fifteen pigs, 15-20 kg in weight were provided by a certified farm. The pigs were acclimated to the laboratory for 2 days. A standard pig diet and water was provided ad libitum. After acclimation, the pigs were randomly assigned into group C [5 pigs, receiving a standard pig diet plus 3 g/kg of Cr2O3, (Merck cat No 1.02483)], group G [5 pigs, receiving diet C plus 8 g/kg of Gln, (Ajimoto)], and group N [5 pigs, receiving diet C plus 10.5 g/kg of N-acetyl-L-glutamine, (Flamma)]. During the experimental phase of the study, each group received 1000 grams of their respective diet per day per animal, fed in 3 portions and water was provided ad libitum. This experimental phase of feeding lasted 5 days.
On the day of experiment, animals were weighed and received the standard diet intake (333 g diet per animal) at 7:00 a.m. Three hours after feeding, animals were weighed, sedated and bled through jugular vein puncture. Animals were quickly opened by abdominal medium sagital incision and the content of the duodenum, medium jejunum (about 2 meters from the ligament of Treitz) and ileum (30 cm from the ileocecal valve) were taken, frozen in liquid nitrogen, lyophylized, and stored at −80° C. until analysis. Samples of liver and kidney were removed, dissected of visible fat and connective tissue, quickly frozen in liquid nitrogen and stored at −80° C. until analysis. […]
Intestinal content was analyzed for glutamine, N-acetyl-L-glutamine and chromium (III) oxide. […]
For analysis of glutamine, the lyophilized intestinal content was treated and analyzed as described in the intestinal loop model above.
Chromium was incorporated into the diets to provide a correction factor to reflect content per kg of original diet. […] The absorbance at 372 nm against demineralized water as a blank was determined. The absorbance readings were converted to mg of Cr2O3 by employing the equation of a standard curve prepared by analyzing 0, 50, 100, 200 and 500 microliters of a standard chromium solution (2.9034 g of K2Cr2O7/L, which is equivalent to 1.5 g/L of Cr2O3).

[3] = N-acetyl-L-glutamine diet (55.8 mmole/kg diet), pigs, 3 hours after feeding

## CC(=O)N[C@@H](CCC(N)=O)C(=O)O [N-acetyl-L-glutamine]
[1]
  Induction of epithelial apoptosis (TUNEL) and sub-epithelial inflammation (CD25): did not induce any effect
  Trophic effect on the biopsies of untreated celiac patients: clear trophic effect; also recorded: appears to improve the overall condition of the mucosa even compared to medium alone
[1]; listed as N-acetyl-glutamine
  Trophic effect on the biopsies of untreated celiac patients: clear trophic effect
[2]; [3]
  N-acetyl-L-glutamine in distal ileum content: 12.8 ± 2.1 mmole/kg original diet
  N-acetyl-L-glutamine in medium jejunum content: 10.3 ± 2.4 mmole/kg original diet
[2]; pig, in vivo
  Absorption between the medial jejunum and the distal ilium: not observed

Reference: US20030134851A1, “Methods and compositions for providing glutamine” (priority 2001, published 2003)
